In ChEMBL document CHEMBL4725365, “Modified tetra-oxygenated xanthones analogues as anti-MRSA and P. aeruginosa agent and their synergism with vancomycin” (2020):
Values after ≈ are worked out from the molar mass of the structure shown. Active and inactive are the calls of the source. The rule behind the calls is not given here.

Key:
Enterococcus faecalis [1] = experiment: Antibacterial activity against vancomycin-resistant Enterococcus faecalis ATCC 51299; assay type: functional
Salmonella typhi = experiment: Antibacterial activity against Salmonella typhi; assay type: functional, Salmonella enterica subsp. enterica serovar Typhi; conditions: Salmonella enterica
Enterococcus faecalis [2] = experiment: Antibacterial activity against Enterococcus faecalis TISTR 459; assay type: functional
Bacillus subtilis = experiment: Antibacterial activity against Bacillus subtilis; assay type: functional
Pseudomonas aeruginosa [3] = experiment: Antibacterial activity against Pseudomonas aeruginosa; assay type: functional
Shigella sonnei = experiment: Antibacterial activity against Shigella sonnei; assay type: functional
Staphylococcus aureus [4] = experiment: Antibacterial activity against methicillin-resistant Staphylococcus aureus ATCC 43300; assay type: functional
Staphylococcus aureus [5] = experiment: Induction of morphological changes in methicillin-resistant Staphylococcus aureus ATCC 43300 assessed as cell deformation at MIC incubated for 24 hrs in presence of vancomycin by scanning electron microscopic method; assay type: functional, organism-based
Pseudomonas aeruginosa [6] = experiment: Induction of morphological changes in Pseudomonas aeruginosa assessed as cell deformation incubated for 24 hrs in presence of vancomycin by scanning electron microscopic method; assay type: functional, organism-based
Staphylococcus aureus [7] = experiment: Synergistic antibacterial activity against methicillin-resistant Staphylococcus aureus ATCC 43300 assessed as fractional inhibitory concentration index in presence of vancomycin; assay type: functional
Staphylococcus aureus [8] = experiment: Synergistic antibacterial activity against methicillin-resistant Staphylococcus aureus ATCC 43300 in presence of vancomycin; assay type: functional
Pseudomonas aeruginosa [9] = experiment: Synergistic antibacterial activity against Pseudomonas aeruginosa in presence of vancomycin; assay type: functional
Staphylococcus aureus [10] = experiment: Induction of morphological changes in methicillin-resistant Staphylococcus aureus ATCC 43300 assessed as cell deformation incubated for 24 hrs by scanning electron microscopic method; assay type: functional, organism-based
Pseudomonas aeruginosa [11] = experiment: Induction of morphological changes in Pseudomonas aeruginosa assessed as cell deformation incubated for 24 hrs by scanning electron microscopic method; assay type: functional, organism-based
Pseudomonas aeruginosa [12] = experiment: Synergistic antibacterial activity against Pseudomonas aeruginosa assessed as fractional inhibitory concentration index in presence of vancomycin; assay type: functional

Row | SMILES | MIC (Enterococcus faecalis [1]) | MIC (Salmonella typhi) | MIC (Enterococcus faecalis [2]) | MIC (Bacillus subtilis) | MIC (Pseudomonas aeruginosa [3]) | MIC (Shigella sonnei) | MIC (Staphylococcus aureus [4]) | Activity (Staphylococcus aureus [5]) | Activity (Pseudomonas aeruginosa [6]) | fractional inhibitory concentration index (FICI) (Staphylococcus aureus [7]) | MIC (Staphylococcus aureus [8]) | MIC (Pseudomonas aeruginosa [9]) | Activity (Staphylococcus aureus [10]) | Activity (Pseudomonas aeruginosa [11]) | fractional inhibitory concentration index (FICI) (Pseudomonas aeruginosa [12])
1 | COc1cc2oc3cc(O)c(OC)c(CCC(C)(C)O)c3c(=O)c2c2c1CCC(C)(C)O2 | > 300 µg/mL | 300 µg/mL (≈ 678 µM) | > 300 µg/mL | 150 µg/mL (≈ 339 µM) | 300 µg/mL (≈ 678 µM) | 300 µg/mL (≈ 678 µM) | 150 µg/mL (≈ 339 µM) |  |  |  |  |  |  |  | 
2 | COc1cc2oc3cc(O)c(CC=C(C)C)c(O)c3c(=O)c2c(CC=C(C)C)c1O |  | 37.5 µg/mL (≈ 91.4 µM) | 75 µg/mL (≈ 183 µM) | 75 µg/mL (≈ 183 µM) | 4.67 µg/mL (≈ 11.4 µM) | 75 µg/mL (≈ 183 µM) | 9.37 µg/mL (≈ 22.8 µM) |  |  |  |  |  |  |  | 
3 | COc1c(O)cc2oc3cc4c(c(O)c3c(=O)c2c1CCC(C)(C)OC)CCC(C)(C)O4 | > 300 µg/mL | 300 µg/mL (≈ 678 µM) | > 300 µg/mL | 9.37 µg/mL (≈ 21.2 µM) | 75 µg/mL (≈ 169 µM) | 300 µg/mL (≈ 678 µM) | 9.37 µg/mL (≈ 21.2 µM) |  |  |  |  |  |  |  | 
4 | COc1c(O)cc2oc3cc4c(c(O)c3c(=O)c2c1CCC(C)(C)O)CCC(C)(C)O4 | > 300 µg/mL | 150 µg/mL (≈ 350 µM) | > 300 µg/mL | 18.8 µg/mL (≈ 43.8 µM) | 75 µg/mL (≈ 175 µM) | 300 µg/mL (≈ 700 µM) | 18.8 µg/mL (≈ 43.8 µM) | Active | Active | 0.375 | 4.98 µg/mL | 9.52 µg/mL | Active | Active | 0.187
5 | COc1cc2oc3cc(O)c(O)c(CC=C(C)C)c3c(=O)c2c(O)c1CC=C(C)C | 300 µg/mL (≈ 731 µM) | 150 µg/mL (≈ 365 µM) | 300 µg/mL (≈ 731 µM) | 18.8 µg/mL (≈ 45.7 µM) | 18.8 µg/mL (≈ 45.7 µM) | 150 µg/mL (≈ 365 µM) | 9.37 µg/mL (≈ 22.8 µM) |  |  |  |  |  |  |  | 
6 | COc1c(O)cc2oc3cc(O)c(CC=C(C)C)c(O)c3c(=O)c2c1CC=C(C)C [MANGOSTIN] | 150 µg/mL (≈ 365 µM) | 18.8 µg/mL (≈ 45.7 µM) | 150 µg/mL (≈ 365 µM) | 2.34 µg/mL (≈ 5.7 µM) | 0.292 µg/mL (≈ 0.713 µM) | 150 µg/mL (≈ 365 µM) | 0.585 µg/mL (≈ 1.43 µM) |  |  | 0.375 | 0.877 µg/mL | 0.439 µg/mL | Active | Active | 0.187
7 | COc1c(OCC=C(C)C)cc2oc3cc(OCC=C(C)C)c(CC=C(C)C)c(O)c3c(=O)c2c1CC=C(C)C |  | > 300 µg/mL | 300 µg/mL (≈ 549 µM) | > 300 µg/mL | 300 µg/mL (≈ 549 µM) | > 300 µg/mL | > 300 µg/mL |  |  |  |  |  |  |  | 
8 | COc1cc2oc3cc(O)c(CC=C(C)C)c(O)c3c(=O)c2c(CC=C(C)C)c1OC |  | 150 µg/mL (≈ 353 µM) | 75 µg/mL (≈ 177 µM) | 75 µg/mL (≈ 177 µM) | 18.8 µg/mL (≈ 44.2 µM) | 150 µg/mL (≈ 353 µM) | 18.8 µg/mL (≈ 44.2 µM) |  |  |  |  |  |  |  | 
9 | COc1cc2oc3cc(O)c(OC)c(CCC(C)(C)OC(C)=O)c3c(=O)c2c2c1CCC(C)(C)O2 | > 300 µg/mL | 300 µg/mL (≈ 619 µM) | > 300 µg/mL | 300 µg/mL (≈ 619 µM) | 300 µg/mL (≈ 619 µM) | 300 µg/mL (≈ 619 µM) | > 300 µg/mL |  |  |  |  |  |  |  | 
10 | COc1cc2oc3cc(O)c(OC)c(CCC(C)C)c3c(=O)c2c(O)c1CCC(C)C |  | 150 µg/mL (≈ 350 µM) | 75 µg/mL (≈ 175 µM) | 150 µg/mL (≈ 350 µM) | 150 µg/mL (≈ 350 µM) | 150 µg/mL (≈ 350 µM) | 37.5 µg/mL (≈ 87.5 µM) |  |  |  |  |  |  |  | 
11 | COc1cc2oc3cc(O)c(OC)c(CC=C(C)C)c3c(=O)c2c2c1CCC(C)(C)O2 | 150 µg/mL (≈ 353 µM) | 300 µg/mL (≈ 707 µM) | 75 µg/mL (≈ 177 µM) | 75 µg/mL (≈ 177 µM) | 300 µg/mL (≈ 707 µM) | 300 µg/mL (≈ 707 µM) | > 300 µg/mL |  |  |  |  |  |  |  | 
12 | COc1cc2oc3cc(O)c(OC)c(CC=C(C)C)c3c(=O)c2c(O)c1CC=C(C)C | 300 µg/mL (≈ 707 µM) | > 300 µg/mL | 300 µg/mL (≈ 707 µM) | 2.34 µg/mL (≈ 5.51 µM) | 9.37 µg/mL (≈ 22.1 µM) | > 300 µg/mL | 4.68 µg/mL (≈ 11 µM) |  |  |  |  |  |  |  | 
13 | COc1c(OS(=O)(=O)c2ccc(Br)cc2)cc2oc3cc(OS(=O)(=O)c4ccc(Br)cc4)c(CC=C(C)C)c(O)c3c(=O)c2c1CC=C(C)C |  | > 300 µg/mL | > 300 µg/mL | > 300 µg/mL | 300 µg/mL (≈ 354 µM) | > 300 µg/mL | > 300 µg/mL |  |  |  |  |  |  |  | 
14 | COc1c(O)cc2oc3cc(O)c4c(c3c(=O)c2c1CCC(C)(C)O)OC(C)(C)CC4 | > 300 µg/mL | 300 µg/mL (≈ 700 µM) | > 300 µg/mL | 37.5 µg/mL (≈ 87.5 µM) | 300 µg/mL (≈ 700 µM) | 300 µg/mL (≈ 700 µM) | 37.5 µg/mL (≈ 87.5 µM) |  |  |  |  |  |  |  | 
15 | COc1cc2oc3cc(O)c(OC)c(CCC(C)(C)O)c3c(=O)c2c(O)c1CC=C(C)C | > 300 µg/mL | 300 µg/mL (≈ 678 µM) | 150 µg/mL (≈ 339 µM) | 9.37 µg/mL (≈ 21.2 µM) | 18.8 µg/mL (≈ 42.4 µM) | 300 µg/mL (≈ 678 µM) | 18.8 µg/mL (≈ 42.4 µM) |  |  |  |  |  |  |  | 
16 | COc1cc2oc3cc(OC)c(OC)c(CC=C(C)C)c3c(=O)c2c(O)c1CC=C(C)C | 300 µg/mL (≈ 684 µM) | 300 µg/mL (≈ 684 µM) | 150 µg/mL (≈ 342 µM) | 75 µg/mL (≈ 171 µM) | 300 µg/mL (≈ 684 µM) | > 300 µg/mL | > 300 µg/mL |  |  |  |  |  |  |  | 
17 | CC(C)=CCc1c(O)cc2oc3cc(O)c(O)c(CC=C(C)C)c3c(=O)c2c1O |  | 18.8 µg/mL (≈ 47.3 µM) | 9.37 µg/mL (≈ 23.6 µM) | 18.8 µg/mL (≈ 47.3 µM) | 18.8 µg/mL (≈ 47.3 µM) | 18.8 µg/mL (≈ 47.3 µM) | 4.68 µg/mL (≈ 11.8 µM) |  |  |  |  |  |  |  | 
18 | O=c1c2cc(O)c(O)cc2oc2cc(O)cc(O)c12 | > 300 µg/mL | > 300 µg/mL | 300 µg/mL (≈ 1150 µM) | 37.5 µg/mL (≈ 144 µM) | 37.5 µg/mL (≈ 144 µM) | > 300 µg/mL | 18.8 µg/mL (≈ 72.1 µM) |  |  |  |  |  |  |  | 
19 | CN[C@H](CC(C)C)C(=O)N[C@H]1C(=O)N[C@@H](CC(N)=O)C(=O)N[C@H]2C(=O)N[C@H]3C(=O)N[C@H](C(=O)N[C@H](C(=O)O)c4cc(O)cc(O)c4-c4cc3ccc4O)[C@H](O)c3ccc(c(Cl)c3)Oc3cc2cc(c3O[C@@H]2O[C@H](CO)[C@@H](O)[C@H](O)[C@H]2O[C@H]2C[C@](C)(N)[C@H](O)[C@H](C)O2)Oc2ccc(cc2Cl)[C@H]1O [VANCOMYCIN] | 2.34 µg/mL (≈ 1.61 µM) | 2.34 µg/mL (≈ 1.61 µM) | 2.34 µg/mL (≈ 1.61 µM) | 2.34 µg/mL (≈ 1.61 µM) | 2.34 µg/mL (≈ 1.61 µM) | 2.34 µg/mL (≈ 1.61 µM) | 2.34 µg/mL (≈ 1.61 µM) |  |  |  |  |  |  |  | 
20 | COc1c(O)cc2oc3cc4c(c(O)c3c(=O)c2c1CC=C(C)C)CCC(C)(C)O4 | > 300 µg/mL | 300 µg/mL (≈ 731 µM) | > 300 µg/mL | 2.34 µg/mL (≈ 5.7 µM) | 2.34 µg/mL (≈ 5.71 µM) | 300 µg/mL (≈ 731 µM) | 1.17 µg/mL (≈ 2.85 µM) |  |  | 0.75 | 1.75 µg/mL | 2.63 µg/mL | Active | Active | 0.375
